Assays:
[1] = target: Neuronal acetylcholine receptor subunit alpha-4 (Homo sapiens, UniProt P43681)
[2] = target: 3',5'-cyclic-AMP phosphodiesterase 4D (Homo sapiens, UniProt Q08499); type: functional
B2 bradykinin receptor = target: T1, B2 bradykinin receptor (Homo sapiens, UniProt P30411)
T1 sequence (P30411 whole entry): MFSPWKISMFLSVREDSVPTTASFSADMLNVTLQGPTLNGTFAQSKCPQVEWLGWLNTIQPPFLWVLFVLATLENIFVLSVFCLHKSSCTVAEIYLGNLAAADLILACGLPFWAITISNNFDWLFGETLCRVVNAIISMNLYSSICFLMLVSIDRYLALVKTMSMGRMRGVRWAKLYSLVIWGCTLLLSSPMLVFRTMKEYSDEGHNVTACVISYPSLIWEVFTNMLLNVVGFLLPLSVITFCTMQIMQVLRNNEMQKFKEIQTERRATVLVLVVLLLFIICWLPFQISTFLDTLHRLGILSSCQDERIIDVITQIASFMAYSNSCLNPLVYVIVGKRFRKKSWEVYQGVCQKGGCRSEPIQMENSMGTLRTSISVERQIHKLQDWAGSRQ

[3] = target: T2, Prostaglandin G/H synthase 1 (Rattus norvegicus, UniProt Q63921); type: functional
T2 sequence (Q63921 whole entry): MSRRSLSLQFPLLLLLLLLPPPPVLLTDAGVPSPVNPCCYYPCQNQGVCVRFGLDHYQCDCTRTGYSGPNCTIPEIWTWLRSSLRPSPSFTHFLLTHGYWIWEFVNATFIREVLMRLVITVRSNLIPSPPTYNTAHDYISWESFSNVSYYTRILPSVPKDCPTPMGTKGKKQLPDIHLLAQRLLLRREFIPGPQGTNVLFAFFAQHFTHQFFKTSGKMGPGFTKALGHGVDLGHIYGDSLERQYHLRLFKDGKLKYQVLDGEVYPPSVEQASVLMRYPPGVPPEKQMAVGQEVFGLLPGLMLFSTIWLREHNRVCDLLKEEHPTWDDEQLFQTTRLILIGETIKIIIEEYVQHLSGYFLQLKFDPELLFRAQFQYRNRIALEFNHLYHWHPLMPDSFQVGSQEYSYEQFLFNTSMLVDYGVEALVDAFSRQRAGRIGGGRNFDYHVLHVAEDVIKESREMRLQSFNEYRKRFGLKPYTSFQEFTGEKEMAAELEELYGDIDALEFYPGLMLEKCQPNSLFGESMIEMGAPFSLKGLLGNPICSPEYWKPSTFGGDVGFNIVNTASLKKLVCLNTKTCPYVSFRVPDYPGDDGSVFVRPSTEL

Melanocortin receptor 3 = Melanocortin receptor 3 (Homo sapiens, UniProt P41968)
[4] = target: T3, Alpha-2A adrenergic receptor (Homo sapiens, UniProt P08913); type: functional, cell-based
T3 sequence (P08913 whole entry): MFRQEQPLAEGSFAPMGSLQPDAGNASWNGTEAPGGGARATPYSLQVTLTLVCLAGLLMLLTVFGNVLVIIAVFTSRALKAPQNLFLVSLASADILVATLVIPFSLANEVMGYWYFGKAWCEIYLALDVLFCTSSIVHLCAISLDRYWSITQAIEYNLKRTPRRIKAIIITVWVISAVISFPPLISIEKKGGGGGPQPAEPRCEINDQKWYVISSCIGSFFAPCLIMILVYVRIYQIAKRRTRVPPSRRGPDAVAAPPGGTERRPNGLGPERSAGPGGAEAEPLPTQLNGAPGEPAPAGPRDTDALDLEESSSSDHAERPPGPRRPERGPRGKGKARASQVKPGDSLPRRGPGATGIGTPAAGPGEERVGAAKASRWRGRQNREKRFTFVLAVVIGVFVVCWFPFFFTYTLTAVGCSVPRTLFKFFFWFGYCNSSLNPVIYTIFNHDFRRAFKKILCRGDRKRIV

[5] = target: Delta-type opioid receptor (Homo sapiens, UniProt P41143)
D(1A) dopamine receptor = D(1A) dopamine receptor (Homo sapiens, UniProt P21728); type: functional, cell-based
[6] = target: T4, Alpha-2C adrenergic receptor (Homo sapiens, UniProt P18825); type: functional
T4 sequence (P18825 whole entry): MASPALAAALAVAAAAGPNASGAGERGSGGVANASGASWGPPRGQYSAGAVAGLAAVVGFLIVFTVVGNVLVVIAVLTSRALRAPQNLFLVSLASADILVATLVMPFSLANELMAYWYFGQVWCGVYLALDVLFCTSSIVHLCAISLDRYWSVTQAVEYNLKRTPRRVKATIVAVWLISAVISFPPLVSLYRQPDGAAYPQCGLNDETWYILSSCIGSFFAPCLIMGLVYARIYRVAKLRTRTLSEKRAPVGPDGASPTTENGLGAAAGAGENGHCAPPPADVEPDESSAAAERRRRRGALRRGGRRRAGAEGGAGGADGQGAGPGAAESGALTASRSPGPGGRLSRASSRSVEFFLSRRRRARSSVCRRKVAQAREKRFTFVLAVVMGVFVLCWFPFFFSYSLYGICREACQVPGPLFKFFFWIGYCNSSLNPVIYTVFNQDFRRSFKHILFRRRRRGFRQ

[7] = target: Voltage-dependent L-type calcium channel subunit alpha-1C (Rattus norvegicus, UniProt P22002); type: functional
[8] = target: 5-hydroxytryptamine receptor 2B (Homo sapiens, UniProt P41595); type: functional, cell-based
[9] = target: T5, Gastrin/cholecystokinin type B receptor (Homo sapiens, UniProt P32239)
T5 sequence (P32239 whole entry): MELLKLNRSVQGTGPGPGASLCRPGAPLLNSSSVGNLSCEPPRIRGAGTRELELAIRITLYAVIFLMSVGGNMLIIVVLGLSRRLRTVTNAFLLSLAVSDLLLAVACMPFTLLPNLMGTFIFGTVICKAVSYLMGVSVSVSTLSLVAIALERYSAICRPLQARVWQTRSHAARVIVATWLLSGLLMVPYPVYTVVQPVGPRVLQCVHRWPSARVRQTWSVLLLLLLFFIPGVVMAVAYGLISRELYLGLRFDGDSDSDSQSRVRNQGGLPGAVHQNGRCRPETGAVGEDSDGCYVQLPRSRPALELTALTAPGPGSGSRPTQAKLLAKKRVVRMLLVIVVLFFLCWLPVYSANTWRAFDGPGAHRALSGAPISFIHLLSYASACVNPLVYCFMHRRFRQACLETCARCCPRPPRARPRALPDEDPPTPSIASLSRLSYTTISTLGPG

[10] = target: Growth hormone secretagogue receptor type 1 (Homo sapiens, UniProt Q92847)
Further: assay procedure not described here.

3',5'-cyclic-AMP phosphodiesterase 4D, sequence (Q08499 whole entry): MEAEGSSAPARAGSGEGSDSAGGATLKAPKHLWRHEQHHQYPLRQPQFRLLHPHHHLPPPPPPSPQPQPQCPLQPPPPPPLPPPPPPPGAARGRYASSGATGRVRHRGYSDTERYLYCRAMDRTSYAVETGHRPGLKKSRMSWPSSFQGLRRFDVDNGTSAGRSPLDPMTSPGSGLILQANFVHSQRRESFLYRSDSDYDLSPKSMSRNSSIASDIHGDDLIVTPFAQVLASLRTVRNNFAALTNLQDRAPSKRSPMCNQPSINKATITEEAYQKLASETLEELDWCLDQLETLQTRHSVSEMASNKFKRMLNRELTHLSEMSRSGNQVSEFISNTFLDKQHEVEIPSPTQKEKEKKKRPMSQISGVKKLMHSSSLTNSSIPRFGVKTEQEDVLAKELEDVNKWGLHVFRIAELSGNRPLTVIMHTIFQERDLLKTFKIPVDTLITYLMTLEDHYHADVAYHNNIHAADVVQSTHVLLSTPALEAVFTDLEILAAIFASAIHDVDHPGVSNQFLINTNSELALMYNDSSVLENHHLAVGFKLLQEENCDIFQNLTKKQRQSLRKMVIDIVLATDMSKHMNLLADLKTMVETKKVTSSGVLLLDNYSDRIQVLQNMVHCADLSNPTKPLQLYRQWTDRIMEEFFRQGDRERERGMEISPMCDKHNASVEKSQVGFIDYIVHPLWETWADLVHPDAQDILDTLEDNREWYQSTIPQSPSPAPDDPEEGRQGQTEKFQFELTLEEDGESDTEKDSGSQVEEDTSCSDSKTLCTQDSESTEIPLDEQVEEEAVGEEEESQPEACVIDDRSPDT
D(1A) dopamine receptor, sequence (P21728 whole entry): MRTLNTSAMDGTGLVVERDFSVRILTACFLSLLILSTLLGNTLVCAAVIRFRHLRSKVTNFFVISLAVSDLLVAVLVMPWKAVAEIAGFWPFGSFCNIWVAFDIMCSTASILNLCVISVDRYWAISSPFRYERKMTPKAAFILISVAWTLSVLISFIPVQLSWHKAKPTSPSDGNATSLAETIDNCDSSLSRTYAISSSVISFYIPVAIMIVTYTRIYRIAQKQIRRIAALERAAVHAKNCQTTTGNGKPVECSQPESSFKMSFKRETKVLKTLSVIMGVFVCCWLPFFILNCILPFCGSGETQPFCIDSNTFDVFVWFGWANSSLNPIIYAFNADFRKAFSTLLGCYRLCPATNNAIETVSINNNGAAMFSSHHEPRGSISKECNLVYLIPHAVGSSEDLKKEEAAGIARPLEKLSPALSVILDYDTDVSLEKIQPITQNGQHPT
Melanocortin receptor 3, sequence (P41968 whole entry): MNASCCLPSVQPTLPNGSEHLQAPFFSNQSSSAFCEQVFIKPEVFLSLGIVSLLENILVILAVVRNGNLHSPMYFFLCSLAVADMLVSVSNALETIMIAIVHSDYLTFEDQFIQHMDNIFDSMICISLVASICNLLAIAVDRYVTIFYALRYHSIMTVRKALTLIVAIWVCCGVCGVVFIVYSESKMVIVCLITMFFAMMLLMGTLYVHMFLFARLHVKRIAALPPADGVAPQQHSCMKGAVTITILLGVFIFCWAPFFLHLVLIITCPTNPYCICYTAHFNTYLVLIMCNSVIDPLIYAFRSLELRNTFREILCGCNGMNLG
Neuronal acetylcholine receptor subunit alpha-4, sequence (P43681 whole entry): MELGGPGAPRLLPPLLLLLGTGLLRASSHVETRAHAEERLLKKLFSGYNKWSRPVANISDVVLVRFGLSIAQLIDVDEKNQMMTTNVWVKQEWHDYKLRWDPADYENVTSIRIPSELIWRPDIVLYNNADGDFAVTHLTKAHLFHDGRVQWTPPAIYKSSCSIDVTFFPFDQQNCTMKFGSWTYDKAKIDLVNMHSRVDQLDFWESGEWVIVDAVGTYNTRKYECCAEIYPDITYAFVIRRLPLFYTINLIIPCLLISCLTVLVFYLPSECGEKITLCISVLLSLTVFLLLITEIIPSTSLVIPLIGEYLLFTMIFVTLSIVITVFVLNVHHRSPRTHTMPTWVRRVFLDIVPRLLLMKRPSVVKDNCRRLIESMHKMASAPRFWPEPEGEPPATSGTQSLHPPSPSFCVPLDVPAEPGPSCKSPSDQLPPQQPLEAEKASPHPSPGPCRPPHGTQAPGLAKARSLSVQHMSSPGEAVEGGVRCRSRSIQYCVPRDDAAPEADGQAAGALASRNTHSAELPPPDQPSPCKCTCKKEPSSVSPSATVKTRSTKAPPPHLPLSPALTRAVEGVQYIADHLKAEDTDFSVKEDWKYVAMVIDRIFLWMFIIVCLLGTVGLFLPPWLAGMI
Delta-type opioid receptor, sequence (P41143 whole entry): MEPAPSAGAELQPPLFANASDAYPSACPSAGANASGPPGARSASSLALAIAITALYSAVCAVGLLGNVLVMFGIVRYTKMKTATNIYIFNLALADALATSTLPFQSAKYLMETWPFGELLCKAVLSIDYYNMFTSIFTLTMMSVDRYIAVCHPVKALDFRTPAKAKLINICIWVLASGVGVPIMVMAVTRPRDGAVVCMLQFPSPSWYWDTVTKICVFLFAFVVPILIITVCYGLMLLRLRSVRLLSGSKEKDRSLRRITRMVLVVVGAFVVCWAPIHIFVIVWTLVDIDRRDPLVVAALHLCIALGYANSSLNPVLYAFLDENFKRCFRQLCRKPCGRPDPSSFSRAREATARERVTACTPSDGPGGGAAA
5-hydroxytryptamine receptor 2B, sequence (P41595 whole entry): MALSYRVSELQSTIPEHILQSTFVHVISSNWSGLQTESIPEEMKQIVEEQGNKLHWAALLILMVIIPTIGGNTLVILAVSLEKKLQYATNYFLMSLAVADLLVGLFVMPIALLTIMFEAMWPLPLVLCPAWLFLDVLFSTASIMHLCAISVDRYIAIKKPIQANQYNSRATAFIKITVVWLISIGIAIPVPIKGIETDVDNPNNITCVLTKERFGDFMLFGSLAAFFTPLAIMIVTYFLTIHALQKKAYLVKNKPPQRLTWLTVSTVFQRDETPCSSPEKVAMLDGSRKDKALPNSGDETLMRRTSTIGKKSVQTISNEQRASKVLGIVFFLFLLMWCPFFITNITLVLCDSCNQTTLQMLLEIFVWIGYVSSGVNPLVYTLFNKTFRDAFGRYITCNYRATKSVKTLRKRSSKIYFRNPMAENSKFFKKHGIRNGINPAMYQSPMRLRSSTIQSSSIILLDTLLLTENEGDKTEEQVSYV
Growth hormone secretagogue receptor type 1, sequence (Q92847 whole entry): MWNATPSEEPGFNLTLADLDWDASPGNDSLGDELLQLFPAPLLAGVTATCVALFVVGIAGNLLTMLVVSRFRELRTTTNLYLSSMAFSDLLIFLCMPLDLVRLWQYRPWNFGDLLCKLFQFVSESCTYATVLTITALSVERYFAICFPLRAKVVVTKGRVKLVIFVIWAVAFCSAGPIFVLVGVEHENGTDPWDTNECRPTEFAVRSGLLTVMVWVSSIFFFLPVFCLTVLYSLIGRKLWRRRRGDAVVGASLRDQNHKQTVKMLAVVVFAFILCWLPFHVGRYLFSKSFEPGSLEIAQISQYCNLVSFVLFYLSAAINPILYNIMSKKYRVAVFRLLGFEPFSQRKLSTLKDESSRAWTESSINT

AC50 [1] [µM] | AC50 [2] [µM] | AC50 (B2 bradykinin receptor) [µM] | AC50 [3] [µM] | AC50 (Melanocortin receptor 3) [µM] | AC50 [4] [µM] | AC50 [5] [µM] | AC50 (D(1A) dopamine receptor) [µM] | AC50 [6] [µM] | AC50 [7] [µM] | AC50 [8] [µM] | AC50 [9] [µM] | AC50 [10] [µM] | Compound
> 30 | > 30 | > 30 | > 30 | > 30 | 0.083 | > 30 | > 30 | 0.71 | > 30 | > 30 | > 30 | > 30 | C=CCN1CCc2nc(N)sc2CC1 [TALIPEXOLE]
> 10 | > 30 | > 30 | > 30 | > 30 | > 10 | > 30 | > 30 | > 10 | > 10 | > 10 | > 30 | > 30 | CCOC(=O)c1ccc(C#Cc2ccc3c(c2)C(C)(C)CCS3)nc1 [TAZAROTENE]
> 30 | > 30 | > 30 | > 30 | > 30 | > 30 | > 30 | > 30 | > 30 | > 30 | > 30 | > 30 | > 30 | Cn1c(=O)c2c(ncn2CCOC(=O)C(C)(C)Oc2ccc(Cl)cc2)n(C)c1=O [THEOFIBRATE]
> 30 | > 30 | > 30 | > 10 | > 30 | > 30 | > 30 | > 30 | > 30 | > 30 | > 30 | > 30 | > 30 | COc1cc(C(=O)NC2CCCNC2)cc(OC)c1OC (stereo not drawn) [TROXIPIDE]
> 30 | 24 | > 30 | > 30 | > 30 | > 30 | > 30 | > 30 | > 30 | > 30 | > 30 | > 30 | > 30 | CC(C(=O)O)c1ccc2c(c1)CC(=O)c1ccccc1S2 (stereo not drawn) [ZALTOPROFEN]

Compound | AC50 [1] [µM] | AC50 [2] [µM] | AC50 (B2 bradykinin receptor) [µM] | AC50 [3] [µM] | AC50 (Melanocortin receptor 3) [µM] | AC50 [4] [µM] | AC50 [5] [µM] | AC50 (D(1A) dopamine receptor) [µM] | AC50 [6] [µM] | AC50 [7] [µM] | AC50 [8] [µM] | AC50 [9] [µM] | AC50 [10] [µM]
CC(C)(C)NCC(O)c1ccccc1Cl (stereo not drawn) [TULOBUTEROL] | > 30 | > 30 | > 30 | > 30 | > 30 | > 30 | > 30 | > 30 | > 30 | > 30 | > 30 | > 30 | > 30

— ChEMBL document CHEMBL5291721, “A preclinical secondary pharmacology resource illuminates target-adverse drug reaction associations of marketed drugs” (Nat Commun, 2023)
